Results reported in publication PMC7591920, “A protein tertiary structure mimetic modulator of the Hippo signalling pathway” (Nature Communications, 2020).
Blank lines part the entries; values can stand above or below the compound they belong to. Bridge positions count the residues as written; N and C are the ends. Square brackets hold non-standard residues; d marks the D form. Peptide text beside a SMILES is read from it. AEEA = NCCOCCOCC(=O)O

Key:
GST-hTEAD1 / biotin-VGL4 = target: T1, GST-hTEAD1 / biotin-VGL4 (Homo sapiens, UniProt P28347); assay: Competition pull-down of GST-hTEAD1 with immobilised biotin-VGL4; assay type: biochemical; details: GST-hTEAD1 1 µM; for Competition with TEAD–VGL4 complex formation (pull-down): peptide 50 and 200 µM, biotin-VGL4 on streptavidin beads, 2.5 h, SDS-PAGE, n = 1
T1 construct: CDNA of hTEAD1(209–426) fused with an N-terminal GST tag; made in house; host or cells: Escherichia coli BL21 DE3 RIL(K+); bait peptide synthetic
Protocol: Beads were then extensively washed with the incubation buffer followed by protein elution after boiling the beads at 95 °C for 10 min in 25 µL of SDS loading buffer. SDS PAGE was performed using standard methods and the gel was visualized after Coomassie staining with a Li-COR Fc Imager.

[1] = system: primary juvenile (P5–P6) rat cardiomyocytes; assay: Cell cycle activity assay (Ki67/αActinin) in juvenile rat cardiomyocytes; assay type: cell-based; details: for Effect on cardiomyocyte cell cycle activity: P5–P6 rat heart cells, 4-days incubation, Ki67/αActinin double-positive cells; for Cell cycle activity, MEAN: c = 10 µM, 4 days, relative to DMSO-treated cells (100), mean of N = 6; for Dose-dependent cell cycle stimulation, MEAN: 4-day treatment, relative to DMSO (100), mean of n = 3
Protocol: One day after seeding, the cells were treated with test compounds of interest. Treatments were applied with an ECHO 520 acoustic dispenser (Labcyte) and medium was added to the wells. Four days after treatment, the cells were fixed with 4% formaldehyde (Roth) and immunostained in 0.2% Triton-X100 (Roth) in PBS (Gibco) supplemented with 5% FBS. […] Samples were then imaged and analysed on an ImageXpress XL automated microscope (Molecular Devices). Data are depicted as means ± SEM.

GST-hTEAD1 = target: T2, GST-hTEAD1 (Homo sapiens, UniProt P28347); assay: SPR binding to immobilised GST-hTEAD1; details: GST-hTEAD1 amine-coupled on CM5, multi-cycle, steady-state fit 1:1 model, 10 mM HEPES 150 mM NaCl 0.05% Tween-20 pH 7.4, 0.3% DMSO, 20 °C, Fig. 1 values n = 1 replicate
T2 construct: CDNA of hTEAD1(209–426) fused with an N-terminal GST tag; made in house; host or cells: Escherichia coli BL21 DE3 RIL(K+)
Protocol: Sensor chips Series S CM5 (Research grade) were obtained from GE Healthcare. Prior to use, the sensor chips were equilibrated at room temperature for 15 min to prevent water condensation on the detector side of the sensor chip surface. A running buffer was prepared composed of 10 mM HEPES, 150 mM NaCl, and 0.05% (w/v) Tween-20, pH 7.4, and the system was equilibrated at 20 °C using a flow rate of 30 µL min^−1 after docking of the sensor chip. Ligand binding experiments have been performed applying the concept of multi-cycle kinetics. A contact time of 45 s was selected, followed by a 6-min dissociation phase to allow for complete dissociation of the analyte prior to the next cycle. […] Typically, seven concentrations of the analytes have been examined applying a threefold dilution pattern with 30 µM as top concentration. For the analysis, five running buffer blanks were injected to equilibrate the instrument. […] The carboxyl-dextran surface was activated for 7 min with 0.05 M NHS and 0.2 M EDC, followed by an injection of the proteins in 10 mM MES pH 6.4 at a concentration of 30–50 µg mL^−1. […] This was followed by a deactivation of the residual esters by injecting a solution of 0.5 M ethanolamine pH 8.0 for 7 min before engaging in ligand binding experiments. Reference surfaces were prepared accordingly, omitting the injection of protein over the activated reference surface.

mTEAD4 = target: T3, mTEAD4 (Mus musculus, UniProt Q62296); assay: SPR binding to immobilised mTEAD4; details: mTEAD4 amine-coupled on CM5, multi-cycle, steady-state fit 1:1 model, 10 mM HEPES 150 mM NaCl 0.05% Tween-20 pH 7.4, 0.3% DMSO, 20 °C, Fig. 1 values n = 1 replicate
T3 construct: Mouse TEAD4(210–427) cDNA fused with a 6x His-tag and a 3C protease cleavage site; 6x His-tag; 3C protease cleavage site; made in house; host or cells: E. coli BL21 DE3 RIL(K+)
In short: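 Proteins amine-coupled (NHS/EDC) to CM5 chips from 10 mM MES pH 6.4; running buffer 10 mM HEPES, 150 mM NaCl, 0.05% Tween-20, pH 7.4, 20 °C, 30 µL min^−1. Multi-cycle kinetics: seven threefold analyte dilutions from 30 µM, 45 s contact, 6-min dissociation, reference-surface subtracted.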

rat heart cells = assay: Cell toxicity assessment on rat heart cells in culture; details: c(peptide) = 10 µM
Protocol: whole heart cells monitored by fluorescence microscopy after 90 minutes treatments (scale bar: 25 µm), number of […]
4E as well as control compounds (SB203580, CHIR99021) on rat heart cells in culture (c(peptide) = 10 µM). Number of independent biological replicates: n = 6, error bars = SEM. […]
cytometry analysis of live cells after 90 min incubation at 5 µM: Representative histogram plot, (-) DMSO control). Source data are provided as a Source Data file.
(1 picture or pasted object on this page, not shown here)

RKO cells [2] = assay: Total drug content in RKO cells by UPLC-MS; details: for Total drug content, Measured Concentration: RIPA total lysis, diluted lysate
Protocol: Peptides were incubated in RKO cells (ATCC, #CRL-2577) as follows: Experiment 1: RKO cells were incubated in 25 µM compound for 90 min and 24 h. Experiment 2: RKO cells were incubated in 25 µM for 30 min or 72 h. Following peptide incubation, the cells were washed twice with PBS, trypsinized and pelleted. The pellets were lysed in RIPA buffer (Perkin Elmer) for total lysis, or CelLytic NuCLEAR Extraction Kit (SIGMA) for subcellular fractionation. Total protein quantification BCA (Pierce) was performed prior to MS analysis to normalize sample data. Total and fractionated cell lysates were analysed by quantitative UPLC-MS utilizing a Waters Xevo TQ-XS (WBA0259) and an Acquity UPLC system from Waters consisting of Sample Manager (M16UFL953M), Acquity PDA (F17UPD457A), Column Oven (E17CMP703G) and Binary Solvent Manager (E17BUR621G). […] Chromatograms of the samples were treated similarly, and by linear regression (1/x) an in-cell concentration was established in the re-suspended cell lysate using the Waters MassLynx TargetLynx^TM product.

RKO cells [3] = assay: Wound closure assay; assay type: cell-based; details: for Effect on wound closure: c = 30 µM, 48 h treatment
Protocol: Ca. 100,000 RKO cells were seeded per well in a transparent ImageLock 96-well plate (#4379, Essen Bioscience) and treated with the samples the next day. Wound Healing Assay was performed using the IncuCyte® ZOOM system and the WoundMaker™ device (both Essen Bioscience). The scratch was performed according to manufacturer’s protocol and images were acquired every 2 h. Image-based analysis of wound closure was conducted using the IncuCyte ZOOM 2016B software (Essen Bioscience). Confluency within the wound area was normalized to the confluency at the time of scratch preparation and plotted using GraphPad Prism 6.

[4] = 25 µM compound, 24 hours, UPLC-MS, n = 2
[5] = 25 µM compound, 24 hours, total lysis, UPLC-MS, n = 2
[6] = total drug content, 25 µM compound, 90 minutes, mean of 2 replicates

T1 sequence (P28347 209-426): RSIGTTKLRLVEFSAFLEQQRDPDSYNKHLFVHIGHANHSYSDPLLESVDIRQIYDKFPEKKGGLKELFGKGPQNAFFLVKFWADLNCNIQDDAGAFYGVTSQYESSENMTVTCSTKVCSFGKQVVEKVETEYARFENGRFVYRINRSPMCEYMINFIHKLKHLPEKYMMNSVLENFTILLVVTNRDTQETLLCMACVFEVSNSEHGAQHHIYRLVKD
T2 sequence (P28347 209-426): as above
T3 sequence (Q62296 210-427): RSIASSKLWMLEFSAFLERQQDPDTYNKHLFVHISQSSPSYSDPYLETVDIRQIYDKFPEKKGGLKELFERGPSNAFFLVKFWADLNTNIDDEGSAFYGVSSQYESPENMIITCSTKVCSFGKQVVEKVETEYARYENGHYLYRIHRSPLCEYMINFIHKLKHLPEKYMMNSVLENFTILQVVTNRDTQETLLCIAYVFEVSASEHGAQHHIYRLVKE

- Competition with TEAD–VGL4 complex formation (pull-down) (GST-hTEAD1 / biotin-VGL4): compete with TEAD–VGL4 complex formation
- Kd (GST-hTEAD1): 700 nM
- Kd (mTEAD4): 1200 nM
- Total drug content, Measured Concentration (RKO cells [2]; [4]): < LLOQ
- Total drug content, nMol (RKO cells [2]; [5]): < LLOQ
- Total drug content, pMol.mg-1 (RKO cells [2]; 25 µM compound, 24 hours, total lysis, UPLC-MS, normalised to BCA protein, n = 2): < LLOQ
- pMol/mg of protein, Mean (RKO cells [2]; [6]): 424.4 pMol/mg of protein
Structure (SMILES): CC[C@H](C)[C@@H]1NC(=O)[C@H](CCC(N)=O)NC(=O)[C@H](CC(C)C)NC(=O)[C@H](Cc2c[nH]c3ccccc23)NC(=O)[C@H]([C@@H](C)O)NC(=O)[C@H](CC(=O)O)NC(=O)CNC(=O)[C@H](CC(C)C)NC(=O)[C@H](C)NC(=O)[C@H](CCCCN)NC(=O)[C@H](C)NC(=O)[C@H](Cc2ccccc2)NC(=O)[C@H](Cc2c[nH]cn2)NC(=O)[C@H](CC(=O)O)NC(=O)[C@@H](NC(=O)[C@@H](NC(=O)[C@H](CO)NC(C)=O)C(C)C)CCC(=O)NCCCC[C@@H](C(=O)N[C@@H](C)C(=O)N[C@@H](C)C(N)=O)NC1=O [4E] (Ac-SVEDHFAKALGDTWLQIKAA-NH2; lactam 3-18)
- Effect on cardiomyocyte cell cycle activity [1]: has no effect
- Cell cycle activity, MEAN [1]: 92.7542
- Total cell number (% DMSO control) (rat heart cells; raw data replicate 1): 98.8636 % DMSO control
- Total cell number (% DMSO control) (rat heart cells; raw data replicate 2): 123.588 % DMSO control
- Total cell number (% DMSO control) (rat heart cells; raw data replicate 3): 109.739 % DMSO control
- Total cell number (% DMSO control) (rat heart cells; raw data replicate 4): 95.1959 % DMSO control
- Total cell number (% DMSO control) (rat heart cells; raw data replicate 5): 66.1379 % DMSO control
- Total cell number (% DMSO control) (rat heart cells; raw data replicate 6): 63.0015 % DMSO control
- Effect on wound closure (RKO cells [3]): no effect

Structure (SMILES): CC[C@H](C)[C@@H]1NC(=O)[C@H](CCC(N)=O)NC(=O)[C@H](CC(C)C)NC(=O)[C@H](Cc2c[nH]c3ccccc23)NC(=O)[C@H]([C@@H](C)O)NC(=O)[C@H](CC(=O)O)NC(=O)CNC(=O)[C@H](CC(C)C)NC(=O)[C@H](C)NC(=O)[C@H](CCCCN)NC(=O)[C@H](C)NC(=O)[C@H](Cc2ccccc2)NC(=O)[C@H](Cc2c[nH]cn2)NC(=O)[C@H](CC(=O)O)NC(=O)[C@@H](NC(=O)[C@@H](NC(=O)[C@H](CO)NC(=O)COCCOCCNC(=O)[C@H](CCC(N)=O)NC(=O)[C@@H]2CCCN2C(=O)[C@H](CCCNC(=N)N)NC(=O)[C@H](CCCNC(=N)N)NC(=O)[C@H](CCCNC(=N)N)NC(=O)[C@H](CCC(N)=O)NC(=O)[C@H](CCCNC(=N)N)NC(=O)[C@H](CCCNC(=N)N)NC(=O)[C@H](CCCCN)NC(=O)[C@H](CCCCN)NC(=O)[C@H](CCCNC(=N)N)NC(=O)CNC(C)=O)C(C)C)CCC(=O)NCCCC[C@@H](C(=O)N[C@@H](C)C(=O)N[C@@H](C)C(N)=O)NC1=O [compound 7] (Ac-GRKKRRQRRRPQ[AEEA]SVEDHFAKALGDTWLQIKAA-NH2; lactam 16-31)
- required concentration for VGL4 competition in the pull-down assay (GST-hTEAD1 / biotin-VGL4; immobilised biotin-VGL4, 2.5 h): ca. 100 µM
- Competition with TEAD–VGL4 complex formation (pull-down) (GST-hTEAD1 / biotin-VGL4): compete with TEAD–VGL4 complex formation
- Dose-dependent cell cycle stimulation, MEAN ([1]; 1 mM (so in the source)): 106.813
- Dose-dependent cell cycle stimulation, MEAN ([1]; 5 mM (so in the source)): 131.729
- Dose-dependent cell cycle stimulation, MEAN ([1]; 10 mM (so in the source)): 172.672
- Effect on cardiomyocyte cell cycle activity [1]: stimulates cell cycle activity to the same extent as positive controls
- Cell cycle activity, MEAN [1]: 148.037
- Kd (GST-hTEAD1): 830 ± 780 nM
- Kd (mTEAD4): 1500 ± 1000 nM
- Total cell number (% DMSO control) (rat heart cells; raw data replicate 1): 121.364 % DMSO control
- Total cell number (% DMSO control) (rat heart cells; raw data replicate 2): 169.336 % DMSO control
- Total cell number (% DMSO control) (rat heart cells; raw data replicate 3): 227.316 % DMSO control
- Total cell number (% DMSO control) (rat heart cells; raw data replicate 4): 141.087 % DMSO control
- Total cell number (% DMSO control) (rat heart cells; raw data replicate 5): 122.138 % DMSO control
- Total cell number (% DMSO control) (rat heart cells; raw data replicate 6): 106.984 % DMSO control
- Total drug content, Measured Concentration (RKO cells [2]; 25 µM compound, 90 minutes, UPLC-MS, n = 2): 122.09 ± 7.277 nM
- Total drug content (RKO cells [2]; 25 µM compound, 90 minutes, total lysis, UPLC-MS, n = 2): 0.1831 ± 0.01091 nmol
- Total drug content, Measured Concentration (RKO cells [2]; [4]): 91.646 ± 61.816 nM
- Total drug content (RKO cells [2]; [5]): 0.1375 ± 0.09272 nmol
- loss of total concentration between 90 min and 24 h incubation (RKO cells [2]; 25 µM, authors' response in peer review file): 30%
- Measured Conc (RKO cells [2]; total drug content, 25 µM compound, 90 minutes, UPLC-MS, dilution factor 10, replicate 1): 114.813 nM
- Measured Conc (RKO cells [2]; total drug content, 25 µM compound, 90 minutes, UPLC-MS, dilution factor 10, replicate 2): 129.367 nM
- pMol/mg of protein, Mean (RKO cells [2]; [6]): 183.0 pMol/mg of protein
- Measured Conc (RKO cells [2]; total drug content, 25 µM compound, 24 hours, UPLC-MS, dilution factor 10, replicate 1): 153.462 nM
- Measured Conc (RKO cells [2]; total drug content, 25 µM compound, 24 hours, UPLC-MS, dilution factor 10, replicate 2): 29.83 nM
- pMol/mg, Mean (RKO cells [2]; total drug content, 25 µM compound, 24 hours, mean of 2 replicates): 127.1 pMol/mg
- Effect on wound closure (RKO cells [3]): considerably increased wound closure
- Wound closure (%) (RKO cells [3]; dose-dependent, 1 µM peptide 7, mean of n = 3): 53.07%
- Wound closure (%) (RKO cells [3]; dose-dependent, 5 µM peptide 7, mean of n = 3): 61.51%
- Wound closure (%) (RKO cells [3]; dose-dependent, 10 µM peptide 7, mean of n = 3): 67.72%
- Wound closure (%) (RKO cells [3]; dose-dependent, 30 µM peptide 7, mean of n = 3): 76.06%
- Wound closure (%) (RKO cells [3]; time-dependent, 12 hours, mean of n = 3): 26.59%
- Wound closure (%) (RKO cells [3]; time-dependent, 24 hours, mean of n = 3): 49.56%
- Wound closure (%) (RKO cells [3]; time-dependent, 36 hours, mean of n = 3): 65.47%
- Wound closure (%) (RKO cells [3]; time-dependent, 48 hours, mean of n = 3): 75.27%
